# Like-named read-outs stand apart in the source and are kept apart here.
# Legend:
# [1] = cited from earlier work; for Solubility: solvents as named in the cell, in water, hexane, ether
# [2] = test system: cell death; settings: compared with curcumin; cited from earlier work
# [3] = test system: IKK; settings: cited from earlier work
# [4] = test system: tumor; settings: compared with Cisplatin; cited from earlier work
# [5] = compared with curcumin; cited from earlier work
# [6] = compared with curcumin; cited from earlier work; remark: listed apart in the source
# [7] = compared with Cisplatin; cited from earlier work
# [8] = test system: plasma protein; test: Behaviour of curcumin in the blood stream (plasma protein binding); type: in vitro ADME; settings: higher physiological pH of blood
# From the text: Since the hydroxyl groups are present in undissociated form when the pH is acidic, the curcuminoids' stability is greater in this environment.
compound,measurement,setting,value
"O=C(/C=C/c1ccc(O)cc1)CC(=O)/C=C/c1ccc(O)cc1 [Bisdemethoxy-CUR, Bis-4-hydroxycinnamoyl methane]",Solubility,[1],"Insoluble in water, hexane, ether;"
"COc1cc(/C=C/C(=O)CC(=O)/C=C/c2ccc(O)cc2)ccc1O [Demethoxy-CUR, 4-Hydroxycinnamoyl feruloyl methane]",Solubility,[1],"Insoluble in water, hexane, ether;"
Cl.O=C1/C(=C/c2ccccc2F)CNC/C1=C\c1ccccc1F [EF-24],Potency in inducing cell death relative to curcumin,[2],10 times
same,IKK inhibition,[3],IKK inhibitor
same,Effectiveness in anti-tumor screening,[4],more effective than Cisplatin
same,Bioavailability,[5],considerably higher bioavailability
same,Potency relative to curcumin,[6],more potent than curcumin
same,Potential of inducing adverse effects,[7],significantly lower potential of inducing adverse effects
"COc1cc(/C=C/C(=O)CC(=O)/C=C/c2ccc(O)c(OC)c2)ccc1O [curcumin, Diferuloylmethane]",Solubility,[1]; listed as CUR,"Insoluble in water, hexane, ether;"
same,Solubility in water,[1]; water,insoluble in water
same,Plasma protein binding on entering the blood stream,[8],binds to plasma protein

# From patent publication US11382871B2 (BRIU GmbH, priority 2012, dated 2022)
